Data reported in patent US20230265405A1, “ENGINEERED NUCLEASES AND METHODS OF USE THEREOF” (Massachusetts Institute of Technology, priority 2022, published 2023).
Read-outs that look alike come from different tables or passages of the source.

What was measured:
Assay type in all cases: cell-based, human
[1] = tested on: several loci in HEK293T cells; experiment: Prime editing with pegRNAs and nicking gRNAs (double-nicking, PE3) at several loci, deep sequencing; details: for precise editing frequencies (mean): mean across several loci; for precise editing frequencies: range across several loci
Description: We compared PEmax and PE for creating small edits at the EMX1, GFP, KRAS, and MYC loci in HEK293T cells.
(§1) We next examined whether vPE produces precise editing by again applying prime editing to convert a GFP transgene to BFP. […] As prime editors can produce indels without the prime edit, with the prime edit, or with the prime edit and pegRNA scaffold incorporation (Chen et al. Cell 184, 5635-5652.e29 (2021)), we further determined how these different indel types were affected.
(§2) Cells were seeded in the maintenance medium without Pen-Strep into 24-well plates at 100,000 cells/well or 48-well plates at 50,000 cells/well. […] Transfections of HEK293T with prime editing vectors were carried out 24 hrs after seeding using 475 ng PE expression vector, 114 ng pegRNA expression vector, and 144 ng nicking gRNA expression vector (for PE3) formulated with 1.47-1.83 μL (equal volume/DNA) Lipofectamine 2000 at a total volume of 58.9-73.3 μL (equal DNA concentration) in OptiMEM I (ThermoFisher) per well for 24-well plates, or half these volumes for 48-well plates. For sequencing assays, genomic DNA was extracted 72 hrs after transfection using QuickExtract (Epicentre). For flow cytometry assays, cells were transferred to 6-well plates 72 hrs after transfection, split 7 days after transfection, and harvested 10 days after transfection in PBS with 5% FBS (ThermoFisher). Repair templates, listed in Supplementary Table 4, were synthesized by IDT.
(§3) The targeted loci were amplified from extracted genomic DNA by PCR using Herculase II polymerase (Agilent). The PCR primers included Illumina sequencing handles as well as replicate-specific barcodes. These PCR products were then tagged with sample-specific barcodes and sequenced on an Illumina MiSeq. Primers, listed in Supplementary Table 5, were synthesized by IDT.
(§4) To measure editing outcomes, the high-throughput sequencing data were analyzed using CRISPResso2 25. Total editing rates were quantified as the fraction of edited reads out of total sequencing reads. Indel rates were quantified as the fraction of reads containing indels out of total sequencing reads. Precise editing rates were quantified as the fraction of reads containing a perfect match to the expected edit out of total sequencing reads. Frequencies of specific indel sizes were quantified as the fraction of reads containing these sizes out of all edited reads. Depletion of specific indel sizes by templated repair was quantified as the fractional reduction in the frequency of that indel size, comparing frequencies for when a template was present versus absent. Mean indel sizes were calculated as the mean of the absolute values of indel sizes weighted by their indel fractions.

[2] = tested on: several loci in HEK293T cells; experiment: Prime editing with pegRNAs without nicking gRNAs (single-nicking, PE2) at several loci, deep sequencing; details: for indel frequencies: all loci; for precise editing frequencies (mean): mean across several loci; for precise editing frequencies: range across several loci
Description: Considering this broad suppression of all indel types, we also studied whether vPE reduced indel frequency at several loci in HEK293T cells using pegRNAs without nicking gRNAs (single-nicking prime editing, or PE2).
as §2, §3, §4

GFP transgene = experiment: Prime editing GFP to BFP conversion with pegRNA and nicking gRNA, flow cytometry
Source text: (§5) We tested these engineered variants by applying prime editing with a pegRNA and nicking gRNA to convert a GFP transgene to BFP, similar to the HDR assay.
as §1
Flow cytometry analysis was performed on an LSR Fortessa analyzer and data was collected using FACSDiva (BD Biosciences). Cells were first gated comparing SSC-A and FSC-A, then SSC-H and SSC-W, then FSC-H and FSC-W parameters to select for single cells. To assess editing frequencies, cells were gated for GFP (488 nm laser excitation, 530/30 nm filter detection) and BFP (405 nm laser excitation, 450/50 nm filter detection). To profile cell cycle stage, cells were gated for propidium iodide (561 nm laser excitation, 610/20 nm filter detection) and Alexa Fluor 647 (640 nm laser excitation, 670/30 nm filter detection). Flow cytometry data were analyzed using FlowJo (FlowJo).

[3] = tested on: KRAS locus in HEK293T cells; experiment: Prime editor variant screen with pegRNA and nicking gRNA (PE3), deep sequencing
Description: To measure precise editing and indel frequencies for these mutants, we combined them with a pegRNA and nicking gRNA (double-nicking prime editing, or PE3) that produces a small sequence replacement at the KRAS locus in HEK293T cells by prime editing and analyzed alterations using deep sequencing of the amplified locus.
as §5
as §2, with “Repair templates, listed in Supplementary Table 4, were synthesized by IDT.” left out

[4] = vPE versus PE, range across loci

Substance: vPE: PE prime editor with K848A-H982A in the Cas9 nickase, SEQ ID NO: 294
- indels resulting from prime editing ([1]; all loci): nearly eliminated indels
- frequencies of each indel type ([1]; indels without prime edit, with prime edit, with pegRNA scaffold incorporation): decreasing the frequencies of each indel type
- precise editing frequencies (mean) [1]: 82.5%
- precise editing frequencies [1]: 57.7-97.4%
- suppression of indel frequency (mean) ([1]; vPE versus PE, mean): 4.7 fold
- suppression of indel frequency [1, 4]: 2.0- to 13.0 fold
- indel types [2]: reductions in all indel types
- indel frequencies [2]: lower indel frequencies
- precise editing frequencies (mean) [2]: 90.5%
- precise editing frequencies [2]: 84.2-98.4%
- suppression of indel frequency (mean) ([2]; vPE versus PE, mean): 1.7 fold
- suppression of indel frequency [2, 4]: 1.1- to 2.5 fold
- indels and precise editing, GFP to BFP conversion (GFP transgene): efficient precise gene conversion with limited indels
- indels and precise editing, GFP to BFP conversion (GFP transgene; listed as K848A-H982A): nearly eliminated indels while promoting precise editing
- precision, rank among PE variants [3]: most precise variant
- precise editing frequency and indel frequency relative to PE ([3]; dual-mutation variants, KRAS locus): increased precise editing frequency and reduced indel frequency

Substance: PE: Prime editor: variant of PEmax with the R221K and N394K mutations reverted; SEQ ID NO: 293 (nucleic acid 286)
- precise editing frequencies (mean) [1]: 49.1%
- precise editing frequencies [1]: 14.7-69.8%
- indel frequencies [2]: fairly low indel frequencies
- precise editing frequencies (mean) [2]: 82.7%
- precise editing frequencies [2]: 72.3-98.2%
